Tests used:
Titration (66% DMF) = format: physicochemical
Excerpt: Titration (66% DMF): pK=7.4, Apparent Mol. Wt.=463 (457 Calculated) Mass Spectral Analysis (FAB) m/z: 458 [(M+1)^+]

SMILES | melting point [°C] | pK (Titration (66% DMF))
NC(=O)Cc1ccc(Oc2ccc(F)cc2)cc1 [Example 1, 4-(4-fluorophenoxy)phenylacetamide] | 170 to 171 | 
NC(=O)C(O)c1ccc(Oc2cccc(-c3ccccc3)c2)cc1OCCCCC(=O)[O-].[Na+] (racemic) [Example 7, Sodium(RS)-2-(4-carboxybutoxy)-4-(3-phenylphenoxy)phenyl-2-hydroxyacetamide] |  | 7.4
NC(=O)Cc1cccc(Oc2ccccc2)c1 [Example 3, 3-phenoxyphenylacetamide] | 115 to 117 | 
NC(=O)Cc1ccc(Oc2ccccc2)cc1 [Example 2, 4-phenoxyphenylacetamide] | 161 to 163 | 

From US6353128B1, “Phenyl acetamides as sPLA2 inhibitors” (Eli Lilly and Company, priority 1996, dated 2002)
